One compound from US11160887B2, “Compositions for use in diagnosing and treating melanoma, including metastatic melanoma and methods related to same” (UNM RAINFOREST INNOVATIONS, priority 2008, dated 2021) can be followed below.

Common to all, as to format: in vivo, mouse
The nature of data set [1]: Biodistribution in B16/F1 murine melanoma-bearing C57 mice. The following applies: female, C57, mouse, iv, 0.037 MBq, total radioactivity; for tissue uptake: all time points (2, 4, 24 h). The protocol: (§1) Biodistribution Studies: All the animal studies were conducted in compliance with Institutional Animal Care and Use Committee approval. The pharmacokinetics of ^111In-DOTA-CycMSH and ^111In-DOTA-GlyGlu-CycMSH were determined in B16/F1 murine melanoma-bearing C57 female mice (Harlan, Indianapolis, Ind.). C57 mice were inoculated subcutaneously with 1×10^6 B16/F1 murine melanoma cells in the right flank. After 10 days, when the weight of tumors reached approximately 0.2 g, 0.037 MBq of ^111In-DOTA-CycMSH or ^111In-DOTA-GlyGlu-CycMSH was injected into each mouse through the tail vein. Groups of 5 mice were sacrificed at 2, 4 and 24 h post-injection, and tumors and organs of interest were harvested, weighed and counted. Blood values were taken as 6.5% of the whole-body weight. The tumor uptake specificity of ^111In-DOTA-CycMSH and ^111In-DOTA-GlyGlu-CycMSH was determined by blocking tumor uptake with the co-injection of 10 μg (6.07 nmol) of unlabeled NDP-MSH, a linear α-MSH peptide analogue with picomolar affinity for the MC1 receptors present on murine melanoma cells. Statistical analysis was performed using the Student's t-test for unpaired data.

The test system of data set [2] is B16/F1 murine melanoma-bearing C57 mice. Described as above. The protocol: as §1
Data set [3] is described as follows: Biodistribution in B16/F10 pulmonary metastatic melanoma-bearing C57 mice. The conditions noted are these: C57, mouse, iv, 0.037 MBq, total radioactivity. The protocol:
(§2) Biodistribution Studies: All the animal studies were conducted in compliance with Institutional Animal Care and Use Committee approval. B16/F10 pulmonary metastatic melanoma model was established by injecting 0.2 million of cultured B16/F10 cells into each C57 mouse (Harlan, Indianapolis, Ind.) through the tail vein. The B16/F10 pulmonary metastatic melanoma-bearing C57 mice were used for biodistribution studies 16 days after the cell injection. The pharmacokinetics of ^111In-DOTA-GlyGlu-CycMSH was determined in B16/F10 pulmonary metastatic melanoma-bearing and normal C57 mice. HPLC-purified 0.037 MBq of ^111In-DOTA-GlyGlu-CycMSH was injected into each mouse through the tail vein. Groups of 5 mice were sacrificed at 2, 4 and 24 h post-injection, and tumors and organs of interest were harvested, weighed and counted. Blood values were taken as 6.5% of the whole-body weight. Statistical analysis was performed using the Student's t-test for unpaired data.

The test system of data set [4] is B16/F10 pulmonary metastatic melanoma-bearing C57 mice. The description is as above. The method, then:
as §2

The mark [5] stands for this setting: urine, by 2 h post-injection, read-out: injected radioactivity cleared through the urinary system.

Each structure is given as a SMILES string. Read-outs that look alike come from different tables or passages of the source. Residues, ends and D or L forms follow the SMILES beside them.

As for `CCCC[C@@H]1NC(=O)[C@@H](NC(=O)[C@H](CCC(=O)O)NC(=O)CNC(=O)CN2CCN(CC(=O)O)CCN(CC(=O)O)CCN(CC(=O)O)CC2)CCCCNC(=O)[C@H](CC(=O)O)NC(=O)[C@H](C(C)C)NC(=O)[C@@H]2CCCN2C(=O)[C@H](CCCNC(=N)N)NC(=O)CNC(=O)[C@H](Cc2c[nH]c3ccccc23)NC(=O)[C@H](CCCNC(=N)N)NC(=O)[C@@H](Cc2ccccc2)NC(=O)[C@H](Cc2c[nH]cn2)NC(=O)[C@H](CCC(=O)O)NC1=O` [^111In-DOTA-GlyGlu-CycMSH, metal not drawn] (HELM PEPTIDE1{[O=C(O)CN1CCN(CC(=O)O)CCN(CC(=O)[*:2])CCN(CC(=O)O)CC1].G.E.K.[Nle].E.H.[dF].R.W.G.R.P.V.D}$PEPTIDE1,PEPTIDE1,4:R3-15:R2$$$V2.0), the tissue uptake is less than 0.2 %ID/g in data set [1] (bone, read-out: bone uptake) and less than 0.8 %ID/g in data set [1] (normal organs except the kidneys, read-out: normal organ uptakes except for the kidneys). The kidney uptake at 24 h in data set [1] (kidney, 24 h after dose administration) was found to be 9.06 ± 1.82 %ID/g. Moreover, the tissue uptake at 2 h in data set [1] (tumor, 2 h post-injection, tail vein) was 10.4 ± 1.4 %ID/g; in data set [3] (metastatic melanoma-bearing lung, 2 h post-injection, 16 days post the cell injection), 2 ± 0.74 %ID/g. Moreover, the tissue uptake at 4 h amounted to 7.4 ± 0.43 %ID/g in data set [1] (tumor, 4 h post-injection, tail vein) and 1.83 ± 0.12 %ID/g in data set [3] (metastatic melanoma-bearing lung, 4 h post-injection, 16 days post the cell injection). In addition, the tissue uptake at 24 h in data set [1] (tumor, 24 h post-injection, tail vein) stood at 2.37 ± 0.28 %ID/g; in data set [3] (metastatic melanoma-bearing lung, 24 h post-injection, 16 days post the cell injection) it was 0.29 ± 0.06 %ID/g. Further, the dose excreted was approximately 90% in data set [1] (setting [5]); approximately 96% in data set [3] (in vivo, at 24 h post-injection, read-out: injected radioactivity cleared out the body); approximately 84% in data set [3] (setting [5]). Further, the “tumor uptake with NDP co-injection as % of the tumor uptake without NDP co-injection” value in data set [2] (10 μg (6.07 nmol) non-radiolabeled NDP co-injection, 2 h after dose administration) amounted to 2.6%. Also, the tumor uptake in data set [2] (2 h post-injection, tail vein) is on record as 10.40±1.40 % ID/g. Moreover, the “kidney uptake higher than 111In-DOTA-ReCCMSH” value in data set [2] (4 h post-injection) came out at 29%. Moreover, the “less renal uptake than 111In-DOTA-CycMSH” value in data set [2] (4 h post-injection) was 44%. The “renal uptake as % of that of 111In-DOTA-CMSH” value in data set [2] (4 h post-injection) is 34%. For the same compound, the “uptake in metastatic melanoma-bearing lung relative to normal lung” value is recorded as 25.0 times in data set [4] (2 h post-injection), 36.6 times in data set [4] (4 h post-injection) and 9.7 times in data set [4] (24 h post-injection).
